Laboratory results: patent US6861390B2, “Derivatives of UK-2A” (priority 2001, dated 2005)
Where two headings read alike, the source gives them in different places.

Legend:
[1] = tested on: Magnaporthe grisea (Pyricularia oryzae, PYRIOR); experiment: microbe, parasite or virus in culture; type: cell-based; details: read-out: T9 PYRIOR in vitro Growth Inhibition
[2] = tested on: Phytophthora infestans (PHYTIN); experiment: microbe, parasite or virus in culture; type: cell-based; details: in Secale cereale, read-out: T8 PHYTIN in vitro Growth Inhibition
Ustilago maydis (USTIMA) = experiment: microbe, parasite or virus in culture; type: cell-based; details: Mycosarcoma maydis, read-out: T12 USTIMA in vitro Growth Inhibition
[3] = tested on: Mycosphaerella graminicola (Septoria tritici, SEPTTR); experiment: microbe, parasite or virus in culture; type: cell-based; details: Zymoseptoria tritici, read-out: T11 SEPTTR in vitro Growth Inhibition
[4] = tested on: Stagonospora nodorum (Leptosphaeria nodorum, LEPTNO); experiment: microbe, parasite or virus in culture; type: cell-based; details: Parastagonospora nodorum, read-out: T7 LEPTNO in vitro Growth Inhibition
[5] = tested on: Phytophthora infestans (PHYTIN); experiment: whole plant or invertebrate; details: in Solanum lycopersicum, 24 h, read-out: T3 PHYTIN in vivo 1 Day Protectant, control of fungal infection
[6] = tested on: Rhizoctonia solani (RHIZSO); experiment: microbe, parasite or virus in culture; type: cell-based; details: read-out: T10 RHIZSO in vitro Growth Inhibition
[7] = tested on: Erysiphe graminis (ERYSGT); experiment: Powdery Mildew of Wheat, whole plant 24 Hour Protectant (T1); details: Blumeria graminis, in Triticum aestivum, read-out: T1 ERYSGT in vivo 1 Day Protectant, control of fungal infection
Description: Compound formulation was accomplished by dissolving technical materials in acetone, with serial dilutions then made in acetone to obtain desired concentrations. Final treatment volumes were obtained by adding 9 volumes 0.01% Triton X-100.
Powdery Mildew of Wheat (Erysiphe graminis—ERYSGT) (24 Hour Protectant): Wheat (cultivar Monon) was grown in a soilless peat-based potting mixture (“Metromix”) and mineral soil (50/50 mix) until the seedlings were 10-20 cm tall. These plants were then sprayed to run-off with the test compound at a rate of 100 ppm. After 24 hours the test plants were inoculated by dusting with conidia from powdery mildew infected wheat plants. The plants were then transferred to the greenhouse until disease developed on the untreated control plants.

[8] = tested on: Septoria tritici (SEPTTR); experiment: Leaf Blotch of Wheat, whole plant 24 Hour Protectant (T6); details: Zymoseptoria tritici; wheat (cultivar Monon), sprayed at 100 ppm, inoculated after 24 hours; read-out: T6 SEPTTR in vivo 1 Day Protectant, control of fungal infection
[9] = tested on: Puccinia recondita (PUCCRT); experiment: Brown Rust of Wheat, whole plant 24 Hour Protectant (T5); details: read-out: T5 PUCCRT in vivo 1 Day Protectant, control of fungal infection
[10] = tested on: Leptosphaeria nodorum (LEPTNO); experiment: Glume Blotch of Wheat, whole plant 24 Hour Protectant (T2); details: Parastagonospora nodorum, read-out: T2 LEPTNO in vivo 1 Day Protectant, control of fungal infection
[11] = wheat (cultivar Yuma), sprayed at 100 ppm, inoculated after 24 hours

Compound	inhibition at 25 ppm [1] [%]	inhibition at 25 ppm [2] [%]	inhibition at 25 ppm (Ustilago maydis (USTIMA)) [%]	inhibition at 25 ppm [3] [%]	inhibition at 25 ppm [4] [%]	pest or weed control at 100 ppm [5] [%]	inhibition at 25 ppm [6] [%]	pest or weed control at 100 ppm [7] [%]	pest or weed control at 100 ppm [8] [%]	pest or weed control at 100 ppm [9, 11] [%]	pest or weed control at 100 ppm [10, 11] [%]	pest or weed control at 100 ppm ([9]; 24 h) [%]	pest or weed control at 100 ppm ([10]; 24 h) [%]
COCCOCCOCC(=O)OCOc1c(OC)ccnc1C(=O)N[C@H]1COC(=O)[C@H](Cc2ccccc2)[C@@H](OC(=O)C(C)C)[C@H](C)OC1=O [Compound 75]	> 80	< 80	> 80	> 80	> 80	< 25	< 80	75 to 100					
COc1ccnc(C(=O)N[C@H]2COC(=O)[C@H](Cc3ccccc3)[C@@H](OC(=O)C(C)C)[C@H](C)OC2=O)c1OCOC(=O)C1CCCO1 (stereo partly shown) [Compound 34]	< 80	< 80	< 80	< 80	> 80	< 25	< 80	25 to 74	75 to 100	75 to 100	75 to 100		
CCCO[C@H]1[C@H](C)OC(=O)[C@@H](NC(=O)c2nccc(OC)c2OCOC(=O)C2CCCC2)COC(=O)[C@@H]1Cc1ccccc1 [Compound 62]	< 80	< 80	> 80	> 80	> 80	< 25	< 80	75 to 100	75 to 100	75 to 100	75 to 100		
CCCOCC(=O)OCOc1c(OC)ccnc1C(=O)N[C@H]1COC(=O)[C@H](Cc2ccccc2)[C@@H](OC(=O)C(C)C)[C@H](C)OC1=O [Compound 35]	> 80	< 80	< 80	> 80	> 80	< 25	> 80	25 to 74	75 to 100	75 to 100	75 to 100		
COc1ccnc(C(=O)N[C@H]2COC(=O)[C@H](Cc3ccccc3)[C@@H](OC(=O)C(C)C)[C@H](C)OC2=O)c1OCOC(=O)C(C)C [Compound 23]	< 80	< 80	> 80	< 80	> 80	< 25	< 80	25 to 74				75 to 100	75 to 100
CCOC(=O)OCOc1c(OC)ccnc1C(=O)N[C@H]1COC(=O)[C@H](Cc2ccccc2)[C@@H](OC(=O)C(C)C)[C@H](C)OC1=O [Compound 45]	> 80	< 80	< 80	< 80	> 80	25 to 74	< 80	25 to 74	75 to 100	75 to 100	75 to 100		
CCCOC(=O)OCOc1c(OC)ccnc1C(=O)N[C@H]1COC(=O)[C@H](Cc2ccccc2)[C@@H](OC(=O)C(C)C)[C@H](C)OC1=O [Compound 46]	> 80	< 80	< 80	< 80	> 80	< 25	< 80	25 to 74	75 to 100	75 to 100	75 to 100		
COCCOC(C)C(=O)OCOc1c(OC)ccnc1C(=O)N[C@H]1COC(=O)[C@H](Cc2ccccc2)[C@@H](OC(=O)C(C)C)[C@H](C)OC1=O (stereo partly shown) [Compound 66]	< 80	< 80	< 80	< 80	< 80	< 25	< 80			75 to 100	75 to 100		
CCOC(C)C(=O)OCOc1c(OC)ccnc1C(=O)N[C@H]1COC(=O)[C@H](Cc2ccccc2)[C@@H](OC(=O)C(C)C)[C@H](C)OC1=O (stereo partly shown) [Compound 68]	< 80	< 80	> 80	> 80	> 80	< 25	> 80			75 to 100	75 to 100		
COc1ccnc(C(=O)N[C@H]2COC(=O)[C@H](Cc3ccccc3)[C@@H](OC(=O)C(C)C)[C@H](C)OC2=O)c1OCOC(=O)COCC(F)(F)F [Compound 70]	< 80	< 80	> 80	< 80	> 80	< 25	< 80			75 to 100	75 to 100		
COCCOCOc1c(OC)ccnc1C(=O)N[C@H]1COC(=O)[C@H](Cc2ccccc2)[C@@H](OC(=O)C(C)C)[C@H](C)OC1=O [Compound 11]						< 25		25 to 74		75 to 100	75 to 100		
COc1ccnc(C(=O)N[C@H]2COC(=O)[C@H](Cc3ccccc3)[C@@H](OCC(C)C)[C@H](C)OC2=O)c1OCOCC(C)C [Compound 65]						< 25		< 25	75 to 100	75 to 100	75 to 100		
C=CCO[C@H]1[C@H](C)OC(=O)[C@@H](NC(=O)c2nccc(OC)c2OCOC(C)=O)COC(=O)[C@@H]1Cc1ccccc1 [Compound 52]	> 80	< 80	< 80	> 80	> 80	< 25	> 80	< 25		75 to 100	75 to 100		
CCCOCOc1c(OC)ccnc1C(=O)N[C@H]1COC(=O)[C@H](Cc2ccccc2)[C@@H](OC(=O)C(C)C)[C@H](C)OC1=O [Compound 6]	< 80	< 80	< 80	< 80	> 80	< 25	< 80	25 to 74		75 to 100	75 to 100		
COc1ccnc(C(=O)N[C@H]2COC(=O)[C@H](Cc3ccccc3)[C@@H](OC)[C@H](C)OC2=O)c1OCOC(C)=O [Compound 71]	> 80	< 80	> 80	> 80	> 80		< 80						
COc1ccnc(C(=O)N[C@H]2COC(=O)[C@H](Cc3ccccc3)[C@@H](OC(=O)C(C)C)[C@H](C)OC2=O)c1OCOC(=O)C(C)OC (stereo partly shown) [Compound 67]	< 80	< 80	> 80	< 80	< 80	< 25	< 80			75 to 100	75 to 100		
COc1ccnc(C(=O)N[C@H]2COC(=O)[C@H](Cc3ccccc3)[C@@H](OC(=O)C(C)C)[C@H](C)OC2=O)c1OC(C)OC (stereo partly shown) [Compound 16]	> 80	< 80	< 80	> 80	> 80	< 25	< 80	< 25			75 to 100		
CCCOC(C)C(=O)OCOc1c(OC)ccnc1C(=O)N[C@H]1COC(=O)[C@H](Cc2ccccc2)[C@@H](OC(=O)C(C)C)[C@H](C)OC1=O (stereo partly shown) [Compound 69]	> 80	< 80	> 80	> 80	> 80	< 25	> 80			75 to 100	75 to 100		
COc1ccnc(C(=O)N[C@H]2COC(=O)[C@H](Cc3ccccc3)[C@@H](OC(=O)C(C)C)[C@H](C)OC2=O)c1OCOC(=O)OC(C)C [Compound 47]						< 25		< 25		75 to 100	75 to 100		
